Experimental data as given in patent US20240166652A1, “MODULATORS OF THE INTEGRATED STRESS PATHWAY” (Calico Life Sciences LLC, priority 2017, published 2024).

These molecules were tested on ATF4 luciferase reporter in HEK293T cells (assay: ATF4-Luc assay (ATF4 luciferase reporter, tunicamycin-treated HEK293T cells)). Settings: Homo sapiens, HEK-293T; HEK293T cells carrying the ATF4 luciferase reporter, 1 μg/mL tunicamycin, 7 hours.
Format: cell-based, human

Row | SMILES | EC50
1 | O=C(COc1ccc(F)c(Cl)c1)NC12CCC(NC(=O)COc3ccc(F)c(Cl)c3)(CC1)[C@@H](O)C2 [Compound 588, N,N′-[(2S)-2-hydroxybicyclo[2.2.2]octane-1,4-diyl]bis[2-(3-chloro-4-fluorophenoxy)acetamide]] | < 10 nM
2 | O=C(COc1ccc(C(F)(F)F)nc1)NC12CCC(NC(=O)COc3ccc(Cl)c(F)c3)(CC1)[C@@H](O)C2 [Compound 589, 2-(4-chloro-3-fluorophenoxy)-N-[(2S)-2-hydroxy-4-(2-{[6-(trifluoromethyl)pyridin-3-yl]oxy}acetamido)bicyclo[2.2.2]octan-1-yl]acetamide] | < 10 nM
3 | O=C(COc1ccc(F)c(F)c1)NC12CC(NC(=O)COc3ccc(F)c(Cl)c3)(C1)C2 [Compound 590, 2-(3-chloro-4-fluorophenoxy)-N-{3-[2-(3,4-difluorophenoxy)acetamido]bicyclo[1.1.1]pentan-1-yl}acetamide] | < 10 nM
4 | O=C(COc1ccc(F)c(Cl)c1)NC12CC(NC(=O)COc3ccc4c(c3)OC(F)(F)O4)(C1)C2 [Compound 591, 2-(3-chloro-4-fluorophenoxy)-N-(3-{2-[(2,2-difluoro-2H-1,3-benzodioxol-5-yl)oxy]acetamido}bicyclo[1.1.1]pentan-1-yl)acetamide] | < 10 nM
5 | O=C(COc1ccc(Cl)c(CO)c1)NC12CCC(NC(=O)COc3ccc(Cl)c(CO)c3)(CC1)[C@@H](O)C2 [Compound 592, N,N′-[(2S)-2-hydroxybicyclo[2.2.2]octane-1,4-diyl]bis{2-[4-chloro-3-(hydroxymethyl)phenoxy]acetamide}] | 500 to 2000 nM
6 | O=C(COc1ccc(Cl)c(C(=O)O)c1)NC12CCC(NC(=O)COc3ccc(Cl)c(C(=O)O)c3)(CC1)[C@@H](O)C2 [Compound 593, 3,3′-{[(2S)-2-hydroxybicyclo[2.2.2]octane-1,4-diyl]bis[azanediyl(2-oxoethane-2,1-diyl)oxy]}bis(6-chlorobenzoic acid)] | > 2000 nM
7 | COC(=O)c1cc(OCC(=O)NC23CCC(NC(=O)COc4ccc(Cl)c(C(=O)OC)c4)(CC2)[C@@H](O)C3)ccc1Cl [Compound 594, dimethyl 3,3′-{[(2S)-2-hydroxybicyclo[2.2.2]octane-1,4-diyl]bis[azanediyl(2-oxoethane-2,1-diyl)oxy]}bis(6-chlorobenzoate)] | > 2000 nM
8 | O=C(COc1ccc(Cl)c(F)c1)N[C@@H]1C[C@H]2CC[C@@H](C1)[C@H]2NC(=O)COc1ccc(Cl)c(F)c1 [Compound 595, N,N′-[(1R,3s,5S,8r)-bicyclo[3.2.1]octane-3,8-diyl]bis[2-(4-chloro-3-fluorophenoxy)acetamide]] | > 2000 nM
9 | O=C(COc1ccc(Cl)c(F)c1)NC12CCC(NC(=O)COc3ccc(F)c(Cl)c3)(CC1)[C@@H](O)C2 [Compound 596, 2-(4-chloro-3-fluorophenoxy)-N-{(3S)-4-[2-(3-chloro-4-fluorophenoxy)acetamido]-3-hydroxybicyclo[2.2.2]octan-1-yl}acetamide] | < 10 nM
10 | COC(=O)c1cc(OCC(=O)NC23CCC(NC(=O)COc4ccc(Cl)c(F)c4)(CC2)[C@@H](O)C3)ccc1Cl [Compound 597, methyl 2-chloro-5-[2-({(3S)-4-[2-(4-chloro-3-fluorophenoxy)acetamido]-3-hydroxybicyclo[2.2.2]octan-1-yl}amino)-2-oxoethoxy]benzoate] | 10 to 50 nM
11 | O=C(COc1ccc(Cl)c(CO)c1)NC12CCC(NC(=O)COc3ccc(Cl)c(F)c3)(CC1)[C@@H](O)C2 [Compound 598, 2-(4-chloro-3-fluorophenoxy)-N-[(2S)-4-{2-[4-chloro-3-(hydroxymethyl)phenoxy]acetamido}-2-hydroxybicyclo[2.2.2]octan-1-yl]acetamide] | < 10 nM
12 | CN1C(=O)C2(NC(=O)COc3ccc(Cl)c(Cl)c3)CCC1(NC(=O)COc1ccc(Cl)c(Cl)c1)CC2 [Compound 599, N,N-(2-methyl-3-oxo-2-azabicyclo[2.2.2]octane-1,4-diyl)bis[2-(3,4-dicholorophenoxy)acetamide]] | 10 to 50 nM
13 | O=C(COc1ccc(Cl)c(Cl)c1)NC12CCC(NC(=O)COc3ccc(Cl)c(Cl)c3)(CC1)C(=O)N2 [Compound 600, N,N′-(3-oxo-2-azabicyclo[2.2.2]octane-1,4-diyl)bis[2-(3,4-dichlorophenoxy)acetamide]] | < 10 nM
14 | O=C(COc1ccc(Cl)c(F)c1)NC12CCC(NC(=O)COc3ccc(Cl)c(Cl)c3)(CC1)C(=O)N2 [Compound 601, 2-(4-chloro-3-fluorophenoxy)-N-{4-[2-(3,4-dichlorophenoxy)acetamido]-3-oxo-2-azabicyclo[2.2.2]octan-1-yl}acetamide] | < 10 nM
15 | O=C(COc1ccc(Cl)c(Cl)c1)NC12CCC(NC(=O)COc3ccc(Cl)c(F)c3)(CC1)C(=O)N2 [Compound 602, 2-(4-chloro-3-fluorophenoxy)-N-{1-[2-(3,4-dichlorophenoxy)acetamido]-3-oxo-2-azabicyclo[2.2.2]octan-4-yl}acetamide] | < 10 nM
16 | O=C(COc1ccc(Cl)c(F)c1)NC12CCC(NC(=O)COc3ccc(Cl)c(F)c3)(CC1)C(=O)N2 [Compound 603, N,N′-(3-oxo-2-azabicyclo[2.2.2]octane-1,4-diyl)bis[2-(4-chloro-3-fluorophenoxy)acetamide]] | < 10 nM

Row | SMILES | EC50
17 | O=C(COc1ccc2c(c1)OC(F)(F)O2)NC12CCC(NC(=O)COc3ccc(Cl)c(Cl)c3)(CC1)C(=O)N2 [Compound 604, 2-(3,4-dichlorophenoxy)-N-(1-{2-[(2,2-difluoro-2H-1,3-benzodioxol-5-yl)oxy]acetamido}-3-oxo-2-azabicyclo[2.2.2]octan-4-yl)acetamide] | 10 to 50 nM
18 | CN1C(=O)C2(NC(=O)COc3ccc(Cl)c(F)c3)CCC1(NC(=O)COc1ccc(Cl)c(F)c1)CC2 [Compound 605, N,N′-(2-methyl-3-oxo-2-azabicyclo[2.2.2]octane-1,4-diyl)bis[2-(4-chloro-3-fluorophenoxy)acetamide]] | 50 to 250 nM
19 | O=C(Cc1ccc(Cl)cn1)NC12CCC(NC(=O)COc3ccc(Cl)c(F)c3)(CC1)[C@@H](O)C2 [Compound 606, 2-(4-chloro-3-fluorophenoxy)-N-{(2S)-4-[2-(5-chloropyridin-2-yl)acetamido]-2-hydroxybicyclo[2.2.2]octan-1-yl}acetamide] | 50 to 250 nM
20 | O=C(COc1cccnc1)NC12CCC(NC(=O)COc3ccc(Cl)c(F)c3)(CC1)[C@@H](O)C2 [Compound 607, 2-(4-chloro-3-fluorophenoxy)-N-[(2S)-2-hydroxy-4-{2-[(pyridin-3-yl)oxy]acetamido}bicyclo[2.2.2]octan-1-yl]acetamide] | 50 to 250 nM
21 | O=C(Cc1ccc(Cl)c(F)c1)NC12CCC(NC(=O)COc3ccc(Cl)c(F)c3)(CC1)[C@@H](O)C2 [Compound 608, 2-(4-chloro-3-fluorophenoxy)-N-{(2S)-4-[2-(4-chloro-3-fluorophenyl)acetamido]-2-hydroxybicyclo[2.2.2]octan-1-yl}acetamide] | 50 to 250 nM
22 | O=C(COc1ccc(Cl)c(F)c1)NC12CC(NC(=O)CN(CCO)c3ccc(Cl)cc3)(C1)C2 [Compound 609, 2-(4-chloro-3-fluorophenoxy)-N-(3-{2-[(4-chlorophenyl)(2-hydroxyethyl)amino]acetamido}bicyclo[1.1.1]pentan-1-yl)acetamide] | > 2000 nM
23 | CCc1cc(COCC23CC(NC(=O)COc4ccc(Cl)c(F)c4)(C2)C3)on1 [Compound 610, 2-(4-chloro-3-fluorophenoxy)-N-(3-{[(3-ethyl-1,2-oxazol-5-yl)methoxy]methyl}bicyclo[1.1.1]pentan-1-yl)acetamide] | > 2000 nM
24 | O=C(COc1ccc(Cl)c(F)c1)NC12CCC(OCCc3ccc(Cl)cc3)(CC1)CC2O (centres unmarked) [Compound 611, 2-(4-chloro-3-fluorophenoxy)-N-{4-[2-(4-chlorophenyl)ethoxy]-2-hydroxybicyclo[2.2.2]octan-1-yl}acetamide] | 10 to 50 nM
25 | O=C(COc1ccc(Cl)c(F)c1)NC12CC(COc3ccccc3)(C1)C2 [Compound 612, 2-(4-chloro-3-fluorophenoxy)-N-[3-(phenoxymethyl)bicyclo[1.1.1]pentan-1-yl]acetamide] | > 2000 nM
26 | O=C(COc1ccc(Cl)c(F)c1)NC12CC(COc3ccc(C(F)F)cn3)(C1)C2 [Compound 613, 2-(4-chloro-3-fluorophenoxy)-N-[3-({[5-(difluoromethyl)pyridin-2-yl]oxy}methyl)bicyclo[1.1.1]pentan-1-yl]acetamide] | 500 to 2000 nM
27 | O=C(COc1ccc(Cl)cc1)NC12CCC(NC(=O)COc3ccc(F)cc3)(CC1)[C@@H](O)C2 [Compound 614, 2-(4-chlorophenoxy)-N-{(3S)-4-[2-(4-fluorophenoxy)acetamido]-3-hydroxybicyclo[2.2.2]octan-1-yl}acetamide] | < 10 nM
28 | O=C(COc1ccc(F)c(F)c1)NC12CCC(NC(=O)COc3ccc(F)c(F)c3)(CC1)[C@@H](O)C2 [Compound 615, N,N′-[(2S)-2-hydroxybicyclo[2.2.2]octane-1,4-diyl]bis[2-(3,4-difluorophenoxy)acetamide]] | < 10 nM
29 | O=C(COc1ccc(F)cc1)NC12CCC(NC(=O)COc3ccc(Cl)cc3)(CC1)[C@@H](O)C2 [Compound 616, 2-(4-chlorophenoxy)-N-{(2S)-4-[2-(4-fluorophenoxy)acetamido]-2-hydroxybicyclo[2.2.2]octan-1-yl}acetamide] | < 10 nM
30 | O=C(COc1ccc(F)cc1)NC12CCC(NC(=O)COc3ccc(F)c(F)c3)(CC1)[C@@H](O)C2 [Compound 617, 2-(3,4-difluorophenoxy)-N-{(2S)-4-[2-(4-fluorophenoxy)acetamido]-2-hydroxybicyclo[2.2.2]octan-1-yl}acetamide] | < 10 nM
31 | O=C(COc1ccc(Cl)cc1)NC12CCC(NC(=O)COc3ccc(F)c(F)c3)(CC1)[C@@H](O)C2 [Compound 618, 2-(4-chlorophenoxy)-N-{(3S)-4-[2-(3,4-difluorophenoxy)acetamido]-3-hydroxybicyclo[2.2.2]octan-1-yl}acetamide] | < 10 nM
32 | O=C(COc1ccc(F)cc1)NC12CCC(NC(=O)COc3ccc(Cl)c(F)c3)(CC1)[C@@H](O)C2 [Compound 619, 2-(4-chloro-3-fluorophenoxy)-N-{(2S)-4-[2-(4-fluorophenoxy)acetamido]-2-hydroxybicyclo[2.2.2]octan-1-yl}acetamide] | < 10 nM
